{"source": "patent US10542754B2", "about": "“Synergistic effect of spinetoram and methoxyfenozide for control of stem borer on rice” (Dow AgroSciences LLC, priority 2014, dated 2020)", "test_system": "striped stem borer (SSB)", "assay": "Laboratory bioassay, rice stem dipping method, against striped stem borer on rice", "conditions": "for Numbers of Dead SSB: four replicates", "description": "Cotoxicity Coefficient (CTC) value was used to determine an existence of synergic effect between spinetoram and methoxyfenozide in the formulated pesticidal composition.\nThe CTC value of the formulated composition was used to determine the biological responses to the treatment: additive, synergism, or antagonism. The CTC value of more than 120 indicates a synergistic effect between the combined pesticidal compounds. The CTC value of about 80 to 120 indicates an additive effect between the combined pesticidal compounds. The CTC value of less than 80 indicates antagonistic effect between the combined pesticidal compounds\nPesticidal compositions were prepared by thoroughly mixing spinetoram and methoxyfenozide at various weight ratios as shown in TABLE 3.\nThe effectiveness of the pesticidal compositions for controlling of striped stem borer on rice was determined using laboratory bioassays, and compared to those of three controls. In the first control, only spinetoram was used for the treatment. In the second control, only methoxyfenozide was used for the treatment. In the third control, no pesticide was used.\nThe rice stem dipping method based on Standard Method for Bioassay Test (Chinese Standard Method NY/T1154.4-2006: Continuous Immersion Test for Insecticide Systemic Activity) was used to conduct the laboratory bioassays.\nFive stems of rice were dipped into the solutions of pestidical compositions for 10 seconds and then taken out for drying in the air. The treated stems were placed into glass tubes. Treatment with water, solvent, and emulsifier alone was used as reference check. There were four replicates for each treatment. About 10±1 larvae of third-instar striped stem borer were placed into each glass tube. The openings of the tubes were covered with gauze. Laboratory bioassays were conducted at room temperature. The number of dead larvae was recorded at 72 hours following the treatment.", "key": {"[1]": {"conditions": "Chilo suppressalis, in Oryza sativa, 72 h"}}, "data": [{"molecule": "COc1cccc(C(=O)NN(C(=O)c2cc(C)cc(C)c2)C(C)(C)C)c1C", "note": "[Methoxyfenozide, methoxyfenozide]", "values": [{"measurement": "LC50", "setting": "[1]", "result": 21.1, "unit": "µg/mL"}, {"measurement": "mortality at 2.5 µg/mL", "setting": "[1]", "result": 4.77, "unit": "%"}, {"measurement": "mortality at 5 µg/mL", "setting": "[1]", "result": 13.6, "unit": "%"}, {"measurement": "mortality at 10 µg/mL", "setting": "[1]", "result": 28.4, "unit": "%"}, {"measurement": "mortality at 20 µg/mL", "setting": "[1]", "result": 43.9, "unit": "%"}, {"measurement": "mortality at 40 µg/mL", "setting": "[1]", "result": 67.5, "unit": "%"}, {"measurement": "mortality at 80 µg/mL", "setting": "[1]", "result": 87.5, "unit": "%"}, {"measurement": "Numbers of Dead SSB", "setting": "mass concentration 2.5 mg/L, 72 hours", "result": 0.5}, {"measurement": "Numbers of Dead SSB", "setting": "mass concentration 5 mg/L, 72 hours", "result": 1.5}, {"measurement": "Numbers of Dead SSB", "setting": "mass concentration 10 mg/L, 72 hours", "result": 3}, {"measurement": "Numbers of Dead SSB", "setting": "mass concentration 20 mg/L, 72 hours", "result": 7}, {"measurement": "Numbers of Dead SSB", "setting": "mass concentration 40 mg/L, 72 hours", "result": 6.75}, {"measurement": "Numbers of Dead SSB", "setting": "mass concentration 80 mg/L, 72 hours", "result": 8.75}, {"measurement": "LC90", "setting": "third-instar larvae, 72 hours", "result": 107.74, "unit": "µg/mL"}]}, {"molecule": "spinetoram", "values": [{"measurement": "Numbers of Dead SSB", "setting": "mass concentration 0.125 mg/L, 72 hours", "result": 0.5}, {"measurement": "Mortality (%)", "setting": "mass concentration 0.125 mg/L, third-instar larvae, 72 hours", "result": 4.55, "unit": "%"}, {"measurement": "Numbers of Dead SSB", "setting": "mass concentration 0.25 mg/L, 72 hours", "result": 2}, {"measurement": "Mortality (%)", "setting": "mass concentration 0.25 mg/L, third-instar larvae, 72 hours", "result": 18.41, "unit": "%"}, {"measurement": "Numbers of Dead SSB", "setting": "mass concentration 0.5 mg/L, 72 hours", "result": 4}, {"measurement": "Mortality (%)", "setting": "mass concentration 0.5 mg/L, third-instar larvae, 72 hours", "result": 37.73, "unit": "%"}, {"measurement": "Numbers of Dead SSB", "setting": "mass concentration 1 mg/L, 72 hours", "result": 6.75}, {"measurement": "Mortality (%)", "setting": "mass concentration 1 mg/L, third-instar larvae, 72 hours", "result": 64.09, "unit": "%"}, {"measurement": "Numbers of Dead SSB", "setting": "mass concentration 2 mg/L, 72 hours", "result": 8.5}, {"measurement": "Mortality (%)", "setting": "mass concentration 2 mg/L, third-instar larvae, 72 hours", "result": 81.14, "unit": "%"}, {"measurement": "Numbers of Dead SSB", "setting": "mass concentration 4 mg/L, 72 hours", "result": 9.75}, {"measurement": "Mortality (%)", "setting": "mass concentration 4 mg/L, third-instar larvae, 72 hours", "result": 95.23, "unit": "%"}, {"measurement": "LC50", "setting": "third-instar larvae, 72 hours", "result": 0.71, "unit": "µg/mL"}, {"measurement": "LC90", "setting": "third-instar larvae, 72 hours", "result": 2.76, "unit": "µg/mL"}]}]}
